Data on 33 compounds can be found in ChEMBL document CHEMBL4145539, “Phenylpyridine-2-ylguanidines and rigid mimetics as novel inhibitors of TNFα overproduction: Beneficial action in models of neuropathic pain and of acute lung inflammation” (Eur J Med Chem, 2018).

The subject of data set [1] is PBMC. As to the kind of experiment: Anti-inflammatory activity in human PBMC assessed as inhibition of LPS-induced TNFalpha production at 10 uM after 24 hrs by ELISA relative to control. The class given is functional. Background: An ELISA detects its analyte on a solid surface through an enzyme-linked reagent.
Data set [2] deals with PBMC. The experiment in a line: Anti-inflammatory activity in human PBMC assessed as inhibition of LPS-induced IL-1beta production at 10 uM after 24 hrs by ELISA relative to control. Type of data set: functional.
Data set [3] is described as follows: Cytotoxicity against human PBMC assessed as cell viability at 10 um after 24 hrs by WST-1 assay relative to control. Type of data set: cell-based. The conditions noted are these: PBMC (peripheral blood mononuclear cells), read-out: Activity. In general terms: Formazan colour is commonly taken as a measure of viable cells.
For data set [4], the system named is PBMC. As to the kind of experiment: Anti-inflammatory activity in human PBMC assessed as inhibition of LPS-induced TNFalpha production after 24 hrs by ELISA. The class given is functional, cell-based.
The subject of data set [5] is PBMC. The experiment in a line: Anti-inflammatory activity in human PBMC assessed as inhibition of LPS-induced IL-1beta production after 24 hrs by ELISA. The class given is functional, cell-based.
The test system of data set [6] is Mus musculus. The experiment in a line: Antiallodynic activity in C57BL/6J mouse model of sciatic nerve ligation-induced neuropathic pain assessed as increase in paw withdrawal latency time at 1 mg/kg, ip bid for 17 consecutive days starting from 2 to 3 weeks post surgery by Von Frey test. Type of data set: functional, organism-based.
Data set [7] concerns Mus musculus. The experiment in a line: Antiallodynic activity in C57BL/6J mouse model of sciatic nerve ligation-induced neuropathic pain assessed as increase in paw withdrawal latency time at 5 mg/kg, ip bid for 17 consecutive days starting from 2 to 3 weeks post surgery measured on day 11 during compound dosing by Von Frey test. The class given is functional, organism-based.

Data set [8] has as its system Mus musculus. The experiment in a line: Anti-inflammatory activity in LPS-induced acute lung inflammation C57BL/6 mouse model assessed as inhibition of neutrophils recruitment in BALF at 5 mg/kg, ip bid administered 1 hr before and 10 hrs after LPS treatment measured 24 hrs post LPS treatment by flow cytometry relative to control. The conditions noted are these: C57BL/6, ip. The class given is functional.

The test system of data set [9] is Mus musculus. As to the kind of experiment: Anti-inflammatory activity in LPS-induced acute lung inflammation C57BL/6 mouse model assessed as inhibition of lymphocytes recruitment in BALF at 5 mg/kg, ip bid administered 1 hr before and 10 hrs after LPS treatment measured 24 hrs post LPS treatment by flow cytometry relative to control. The conditions noted are these: C57BL/6, ip. Type of data set: functional.

In data set [10] the test system is Mus musculus. The experiment in a line: Anti-inflammatory activity in LPS-induced acute lung inflammation C57BL/6 mouse model assessed as inhibition of TNFalpha level in BALF at 5 mg/kg, ip bid administered 1 hr before and 10 hrs after LPS treatment measured 24 hrs post LPS treatment by ELISA relative to control. Type of data set: functional. The conditions noted are these: C57BL/6, ip.

Data set [11] relates to Mus musculus. The experiment in a line: Toxicity in C57BL/6 mouse assessed as effect on number of inflammatory cells recovered in BALF at 5 mg/kg, ip bid administered 1 hr before and 10 hrs after LPS treatment measured 24 hrs post LPS treatment by flow cytometry. Type of data set: organism-based. To be noted: in vivo. On the technique in general: Flow cytometry measures light scatter and fluorescence of single cells or particles in a stream.

In data set [12] the test system is Mus musculus. The experiment in a line: Antiallodynic activity in C57BL/6J mouse model of sciatic nerve ligation-induced neuropathic pain assessed as increase in paw withdrawal latency time at 1 mg/kg, ip bid for 17 consecutive days starting from 2 to 3 weeks post surgery measured on day 16 during compound dosing by Von Frey test. Type of data set: functional, organism-based.

For data set [13], the system named is Mus musculus. The experiment in a line: Toxicity in C57BL/6J mouse model of sciatic nerve ligation-induced neuropathic pain assessed as behavioral changes at 1 to 5 mg/kg, ip bid for 17 consecutive days starting from 2 to 3 weeks post surgery. To be noted: in vivo. Type of data set: organism-based.
Data set [14] relates to Mus musculus. As to the kind of experiment: Toxicity in C57BL/6J mouse model of sciatic nerve ligation-induced neuropathic pain assessed as body weight loss at 5 mg/kg, ip bid for 17 consecutive days starting from 2 to 3 weeks post surgery relative to control. To be noted: in vivo. Type of data set: organism-based.
The test system of data set [15] is Mus musculus. The experiment in a line: Toxicity in C57BL/6J mouse model of sciatic nerve ligation-induced neuropathic pain assessed as body weight loss at 1 mg/kg, ip bid for 17 consecutive days starting from 2 to 3 weeks post surgery. The conditions noted are these: in vivo. Type of data set: organism-based.

As a reminder, the inhibition is the change of the read-out against control, counted positive when it falls. The IC50 is the point on the concentration scale where inhibition reaches its midpoint. By inhibition in vivo is commonly meant the change of the read-out against control, counted positive when it falls.

Each structure is given as a SMILES string. Active and inactive are the calls of the source. The rule behind the calls is not given here.

On to `COc1cccc(-c2ccnc(NC(=N)N)c2)c1`, for which the inhibition at 10 µM was determined as 56% with PBMC [1] and 29% with PBMC [2]. For the same compound, the viability at 24 h, 10 µM in [3] was determined as 66%.
On to `Nc1nc2ccc(-c3ccccc3)cc2[nH]1`, for which the inhibition at 10 µM in the data set on PBMC [1] came to 15%; in the data set on PBMC [2], 3%. Also, the viability at 24 h, 10 µM in [3] was 114%.
In the case of `NC1=Nc2cccc(-c3ccccc3)c2CN1`, the figures for the inhibition at 10 µM with PBMC [1] and in the data set on PBMC [2] were 7% and 0%, respectively. The viability at 24 h, 10 µM in [3] amounted to 111%.
In the case of `N=C(N)Nc1ncccc1-c1ccccc1`, the inhibition at 10 µM with PBMC [1] was determined as 11%; in the data set with PBMC [2], 1%. Moreover, the viability at 24 h, 10 µM in data set [3] was 108%.
Regarding `COc1ccc(-c2ccnc(NC(=N)N)c2)cc1`, the inhibition at 10 µM was 69% with PBMC [1] and 86% in the data set with PBMC [2]. The viability at 24 h, 10 µM in [3] turned out to be 34%.
Consider `NC1=Nc2cc(-c3ccccc3)ccc2CCN1`, for which the inhibition at 10 µM is -7% in the data set on PBMC [1] and -4% in the data set with PBMC [2]. Also, the viability at 24 h, 10 µM in data set [3] is 100%.
For `N=C(N)Nc1cc(-c2cccc(Cl)c2)ccn1` the same measures were 64%, 53% and 38%.
For `N=C(N)Nc1ccc(-c2ccc(Cl)cc2)cn1` the same measures were 72%, 97% and 23%.
In the case of `N=C(N)Nc1ccc(-c2cccc(Cl)c2)cn1`, the values for the inhibition at 10 µM with PBMC [1] and in the data set with PBMC [2] were 52% and 8%, respectively. Also, the IC50 in the data set with PBMC [4] stood at 5.5 µM; with PBMC [5], 17.5 µM. In addition, in [3], the viability at 24 h, 10 µM worked out at 94%.
With `CNCCC=C1c2ccccc2CCc2ccccc21`, the outcome in the data set with Mus musculus [6] was inactive. Also, in the data set with Mus musculus [7], the result was Active.
For `N=C(N)Nc1cccc(-c2ccc(Cl)cc2)n1`, the inhibition at 10 µM in the data set on PBMC [1] is 72%; in the data set with PBMC [2], 77%. Moreover, the viability at 24 h, 10 µM in [3] was 35%.
In the case of `NC1=Nc2ccc(-c3ccccc3)cc2CN1`, the inhibition at 10 µM with PBMC [1] turned out to be 22%. Further, the viability at 24 h, 10 µM in data set [3] turned out to be 90%.
`COc1ccccc1-c1ccnc(NC(=N)N)c1`: the results for the inhibition at 10 µM in the data set with PBMC [1] and in the data set with PBMC [2] were 10% and -1%, respectively. Also, in data set [3], the viability at 24 h, 10 µM came out at 99%.
For `N=C(N)Nc1cccc(-c2cccc(Cl)c2)n1` the same measures were 74%, 80% and 40%.
In the case of `N=C(N)Nc1cccc(-c2ccccc2Cl)n1`, the figures for the inhibition at 10 µM with PBMC [1] and with PBMC [2] were 47% and 9%, respectively. Also, the values for the IC50 in the data set on PBMC [4] and in the data set with PBMC [5] were 19.2 µM and greater than 30 µM, respectively. Also, the viability at 24 h, 10 µM in data set [3] turned out to be 74%.
For `N=C(N)Nc1cccc(-c2ccccc2)n1` the same measures were 18%, 3%, 18.6 µM, greater than 30 µM and 100%.
As for `COc1ccccc1-c1cccc(NC(=N)N)n1`, the inhibition at 10 µM with PBMC [1] is 7%; with PBMC [2] it was 1%. The viability at 24 h, 10 µM in data set [3] came out at 106%.
`COc1ccccc1-c1ccc2c(c1)CNC(N)=N2`: the values for the inhibition at 10 µM in the data set with PBMC [1] and in the data set on PBMC [2] were 13% and 1%, respectively. Further, the viability at 24 h, 10 µM in [3] came out at 126%.
Turning to `N=C(N)Nc1ccc(-c2ccccc2)cn1`, the values for the inhibition at 10 µM with PBMC [1] and with PBMC [2] were -9% and -1%, respectively. The viability at 24 h, 10 µM in data set [3] amounted to 97%.
For `N=C(N)Nc1ccc(-c2ccccc2Cl)cn1` the same measures were 82%, 96% and 55%.
`N=C(N)Nc1cc(-c2ccccc2Cl)ccn1`: the inhibition at 10 µM in the data set on PBMC [1] was 65%; with PBMC [2], 23%. In addition, the viability at 24 h, 10 µM in [3] came out at 42%.
As for `COc1ccc(-c2ccc(NC(=N)N)nc2)cc1`, the inhibition at 10 µM in the data set on PBMC [1] was found to be 58%; with PBMC [2] it was 48%. In addition, the viability at 24 h, 10 µM in [3] stood at 34%.
With `COc1cccc(-c2cccc(NC(=N)N)n2)c1`, the inhibition at 10 µM is 7% in the data set on PBMC [1] and 2% in the data set with PBMC [2]. Besides, in data set [3], the viability at 24 h, 10 µM stood at 104%.
`N=C(N)Nc1cc(-c2ccc(C(F)(F)F)cc2)ccn1`: the inhibition at 10 µM in the data set with PBMC [1] was 71%; in the data set with PBMC [2], 98%. Besides, the viability at 24 h, 10 µM in [3] came out at 24%.
For the compound `N=C(N)Nc1cc(-c2ccccc2)ccn1`, the results for the inhibition at 10 µM in the data set on PBMC [1] and with PBMC [2] were 67% and 91%, respectively. In addition, the figures for the IC50 with PBMC [4] and in the data set with PBMC [5] were 1.2 µM and 5.8 µM, respectively. The inhibition in vivo at 5 mg/kg in the data set on Mus musculus [8] turned out to be 39%; in the data set on Mus musculus [9], 52%. Also, the outcome in the data set on Mus musculus [6] was Active.
With `NC1=Nc2cc(-c3ccccc3)ccc2CN1`, the inhibition at 10 µM worked out at 76% in the data set on PBMC [1] and 93% in the data set with PBMC [2]. In addition, the IC50 in the data set with PBMC [4] stood at 1 µM; in the data set with PBMC [5] it was 3.7 µM. Further, in data set [3], the viability at 24 h, 10 µM is 81%. Besides, the inhibition in vivo at 5 mg/kg with Mus musculus [8] was 62%; with Mus musculus [9], 63%; in the data set on Mus musculus [10], 49%. The Activity result in the data set on Mus musculus [11] and in the data set with Mus musculus [13] was “Non-Toxic” throughout. In addition, the result with Mus musculus [7] and with Mus musculus [12] was Active.
`N=C(N)Nc1cc(-c2ccc(Cl)cc2)ccn1`: the inhibition at 10 µM with PBMC [1] worked out at 69%; with PBMC [2] it was 97%. Also, the viability at 24 h, 10 µM in data set [3] was determined as 24%.
Regarding `COc1cccc(-c2ccc(NC(=N)N)nc2)c1`, the inhibition at 10 µM amounted to 25% in the data set on PBMC [1] and 4% with PBMC [2]. Further, in [3], the viability at 24 h, 10 µM came to 116%.
Take `COc1ccccc1-c1ccc(NC(=N)N)nc1`: the inhibition at 10 µM in the data set on PBMC [1] was determined as 56%; with PBMC [2], 4%. Also, the values for the 50% inhibitory concentration (IC50) with PBMC [4] and with PBMC [5] were 7.7 µM and greater than 30 µM, respectively. For the same compound, the viability at 24 h, 10 µM in [3] was found to be 78%.
For the compound `NC(=S)Nc1cc(-c2ccccc2)ccn1`, the inhibition at 10 µM in the data set with PBMC [1] was 4%; with PBMC [2] it was 1%. Moreover, the viability at 24 h, 10 µM in [3] stood at 86%.
Take `NC(N)=Nc1cc(-c2ccccc2)ccn1`: the viability at 24 h, 10 µM in data set [3] was found to be 72%. Moreover, the Activity entry in the data set with Mus musculus [11] was “Non-Toxic”; in the data set with Mus musculus [14] it was 5%; in the data set with Mus musculus [15], “Non-Toxic”.
With `COc1ccc(-c2cccc(NC(=N)N)n2)cc1`, the inhibition at 10 µM was 27% in the data set on PBMC [1] and -6% in the data set with PBMC [2]. In addition, the viability at 24 h, 10 µM in [3] is 94%.
In the case of `COc1ccc(C2CNC(=O)C2)cc1OC1CCCC1` (centres undefined) [ROLIPRAM], the inhibition at 10 µM in the data set on PBMC [1] stood at 79%. In the data set with PBMC [4], the IC50 is 0.13 µM. Also, the viability at 24 h, 10 µM in [3] is 104%.
